# Test results: PubChem BioAssay (NCI)
#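 The compound was tested at five concentrations on cells cultured in 96-well plates, with a 48-hour exposure period. GI50 marks 50% less growth. TGI denotes the concentration required for complete inhibition of growth.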
# Key:
# Test in all cases: DTP human tumour cell line panel, 48 h
# [1] = test system: HOP-92 NSCLC
# [2] = test system: SF-539 CNS
# [3] = test system: NCI-H460 lung
# [4] = test system: SF-268 CNS
# [5] = test system: OVCAR-3 ovarian
# [6] = test system: RPMI-8226 leukemia
# [7] = test system: MALME-3M melanoma
# [8] = test system: HT29 colon
# [9] = test system: COLO 205 colon
# [10] = test system: TK-10 renal
SMILES,TGI [1],TGI [2],TGI [3],TGI [4],TGI [5],TGI [6],TGI [7],TGI [8],TGI [9],TGI [10],GI50 [1],GI50 [2],GI50 [3],GI50 [4],GI50 [5],GI50 [6],GI50 [7],GI50 [8],GI50 [9],GI50 [10]
CC(=O)/C=C/c1ccc(C)cc1,> 100 µM,> 100 µM,> 100 µM,> 100 µM,> 100 µM,> 100 µM,> 100 µM,> 100 µM,> 100 µM,> 100 µM,,,,,,,,,,
Cc1ccc(Sc2sc(-c3ccccc3)nc2[P+](c2ccccc2)(c2ccccc2)c2ccccc2)cc1,0.563 µM,1.47 µM,1.09 µM,1.43 µM,1.23 µM,0.523 µM,0.92 µM,1.17 µM,0.412 µM,1.64 µM,0.186 µM,0.375 µM,0.314 µM,0.366 µM,0.346 µM,0.178 µM,0.27 µM,0.237 µM,0.195 µM,0.336 µM
COc1ccccc1/C=C/C(=O)/C=C/c1ccccc1OC,5.04 µM,6.33 µM,5.64 µM,4.57 µM,3.68 µM,8.43 µM,4.35 µM,5.04 µM,3.5 µM,8.83 µM,2.1 µM,2.82 µM,2.16 µM,1.92 µM,1.68 µM,2.25 µM,2.11 µM,2.24 µM,1.94 µM,3.52 µM
CCOC(=O)Nc1nc2c(C)cccc2s1,71.5 µM,> 100 µM,> 100 µM,> 100 µM,> 100 µM,> 100 µM,> 100 µM,> 100 µM,> 100 µM,> 100 µM,13.9 µM,77.7 µM,70.8 µM,55.3 µM,41.8 µM,31.4 µM,56.3 µM,46.8 µM,> 100 µM,90.9 µM
Cc1cc(N(CCCl)CCCl)ccc1/C=N/NC(=O)Cc1cc(=O)oc2cc(O)ccc12,> 100 µM,40.7 µM,30.5 µM,56.4 µM,72.8 µM,57.5 µM,27.7 µM,31.2 µM,36.7 µM,,,,,,,,,,,
COc1ccc2c(c1)/C(=C/c1cc(OC)c(OC)c(OC)c1)C(=O)N2C,> 100 µM,5.92 µM,7.02 µM,6.72 µM,5.95 µM,4.43 µM,> 29.2 µM,> 88.1 µM,3.68 µM,> 31.6 µM,3.01 µM,2.21 µM,2.46 µM,2.39 µM,2.03 µM,1.59 µM,2.87 µM,2.9 µM,1.83 µM,3.56 µM
NC1CCC(N[C@@H]2C[C@H]2c2ccccc2)CC1 (stereo partly specified),> 100 µM,52 µM,> 100 µM,> 100 µM,> 100 µM,> 100 µM,84.7 µM,> 100 µM,> 100 µM,> 100 µM,5.47 µM,15.3 µM,> 100 µM,> 100 µM,> 100 µM,41.8 µM,21.1 µM,40.1 µM,73.4 µM,> 100 µM
COC1=C(Br)C(=O)C2=C(C1=O)C1C3=C(C(=O)C=CC3=O)C2c2ccccc21 (stereo unspecified),11.6 µM,8.79 µM,> 100 µM,59.6 µM,28.3 µM,> 100 µM,56.8 µM,> 100 µM,44.9 µM,43.5 µM,2.51 µM,2.92 µM,33.3 µM,18.2 µM,5.43 µM,4.04 µM,27.8 µM,31.9 µM,12.3 µM,23.8 µM
CCOC(=O)c1cc(C(=O)c2cc(OC)c(OC)c(OC)c2)n2ccccc12,> 100 µM,0.863 µM,> 100 µM,> 100 µM,4.11 µM,> 100 µM,> 100 µM,> 100 µM,2.57 µM,> 100 µM,25.6 µM,0.103 µM,0.0772 µM,1.12 µM,0.0334 µM,0.121 µM,1.06 µM,0.0425 µM,0.0588 µM,11.6 µM
O=C(Nc1ccccc1)Nc1cccc(Oc2nnc(Cl)c3ccccc23)c1,11.3 µM,6.4 µM,8.65 µM,7.57 µM,5.97 µM,24.3 µM,5.93 µM,> 25 µM,> 25 µM,14.9 µM,3.09 µM,2.81 µM,2.67 µM,2.89 µM,2.64 µM,4.45 µM,1.62 µM,5.26 µM,5.24 µM,6.08 µM
NNC(=O)/C(NC(=O)c1ccccc1)=C(\N)c1ccc(Cl)cc1,> 100 µM,> 100 µM,> 100 µM,> 100 µM,> 100 µM,> 100 µM,> 100 µM,> 100 µM,> 100 µM,> 100 µM,,,,,,,,,,
C=CCn1cc(C(=O)NC(=O)NCCCCCOC(=O)CCCCCCCCCCC(=O)OCCCCCNC(=O)NC(=O)c2cn(CC=C)c(=O)n(C)c2=O)c(=O)n(C)c1=O,> 100 µM,> 100 µM,> 100 µM,> 100 µM,> 100 µM,> 100 µM,> 100 µM,> 100 µM,> 100 µM,> 100 µM,,,,,,,,,,
COC(=O)C1C(OCc2ccccc2)C2CCC1(OC)C=C2C (stereo unspecified),> 100 µM,> 100 µM,> 100 µM,> 100 µM,> 100 µM,> 100 µM,> 100 µM,> 100 µM,> 100 µM,> 100 µM,,,,,,,,,,
C=C1C(=O)O[C@H]2[C@H]1CC/C(COC(=O)c1ccccc1)=C\CC[C@@]1(C)O[C@@H]21,2.61 µM,2.1 µM,6.16 µM,3.47 µM,1.74 µM,2.44 µM,3.86 µM,2.1 µM,3.14 µM,3.98 µM,0.984 µM,0.662 µM,2.22 µM,1.56 µM,0.482 µM,0.375 µM,1.82 µM,0.412 µM,1.37 µM,2.03 µM
Nc1ncnc2c1cnn2Cc1ccc(Cl)cc1,> 92.5 µM,> 100 µM,> 100 µM,> 100 µM,> 100 µM,> 100 µM,> 100 µM,> 100 µM,> 100 µM,> 100 µM,,67.4 µM,,,,> 100 µM,> 100 µM,,,
OCC(O)C(O)C(O)/C=N/Nc1nc2ccccc2nc1-c1ccccc1 (stereo unspecified),> 100 µM,> 100 µM,> 100 µM,> 100 µM,> 100 µM,> 100 µM,> 100 µM,> 100 µM,> 100 µM,> 100 µM,60.1 µM,20.5 µM,70.3 µM,74.1 µM,46 µM,85.3 µM,> 100 µM,> 100 µM,51.6 µM,> 100 µM
O=C(/C=C/c1ccccc1Cl)c1ccc(Cl)cc1Cl,39 µM,38.5 µM,31.6 µM,31.3 µM,31.6 µM,37.5 µM,33.5 µM,28 µM,32.1 µM,31.7 µM,,,,,,,,,,
Fc1ccc2[nH]cc(SSc3c[nH]c4ccc(F)cc34)c2c1,7.92 µM,14.7 µM,19.9 µM,21.9 µM,18.3 µM,6.46 µM,34 µM,23.9 µM,17.4 µM,24.6 µM,1.95 µM,3.77 µM,4.44 µM,5.07 µM,4.52 µM,1.5 µM,14.6 µM,5.46 µM,3.83 µM,10.1 µM
CC(C)c1ccc(NC(=S)NC(=O)c2ccccc2)cc1,> 100 µM,> 100 µM,40.2 µM,46.4 µM,38.3 µM,> 100 µM,69.8 µM,32.4 µM,33.6 µM,50.1 µM,,,,,,,,,,
COc1ccc2c(c1)/C(=N/OC(C)=O)c1c-2c(=O)[nH]c2ccccc12,38.3 µM,46.4 µM,> 100 µM,> 100 µM,36.3 µM,21.8 µM,29.8 µM,32.8 µM,31.7 µM,58 µM,11.1 µM,16.9 µM,59 µM,25.1 µM,16.5 µM,5.12 µM,13.2 µM,15.6 µM,12.2 µM,15.2 µM
c1ccc(COC2(OCc3ccccc3)CC3OC2C2NN=NC32)cc1 (stereo unspecified),40.8 µM,43.5 µM,> 100 µM,51 µM,33.8 µM,41.9 µM,52.6 µM,46.5 µM,> 100 µM,,,,,,,,,,,
CCNCCCn1c2c(c3ccc([N+](=O)[O-])cc3c1=O)C(=O)c1cc(OC)cnc1-2,17.4 µM,0.579 µM,0.376 µM,1.5 µM,0.302 µM,0.976 µM,0.715 µM,1.25 µM,1.67 µM,1.47 µM,0.471 µM,0.0696 µM,0.0321 µM,0.0527 µM,0.0616 µM,0.0813 µM,0.162 µM,0.0579 µM,0.0874 µM,0.294 µM
CC(=O)OC1Oc2ccccc2-c2oc(=O)c(-c3cc4ccccc4oc3=O)cc21 (stereo unspecified),45.6 µM,39.2 µM,91 µM,40.9 µM,46.6 µM,41.2 µM,36.5 µM,> 100 µM,> 100 µM,37.2 µM,19.3 µM,19.8 µM,27.8 µM,19.6 µM,19.1 µM,18.7 µM,13.9 µM,33 µM,35.5 µM,18.3 µM
C/C(=N\N=C(N)N)C(CN(C)C)C(c1ccccc1)c1c(O)c2ccccc2oc1=O (stereo unspecified),> 100 µM,> 100 µM,> 100 µM,> 100 µM,> 100 µM,> 100 µM,> 100 µM,> 100 µM,> 100 µM,> 100 µM,,,,,,,,,,
C=C1C(=O)O[C@H]2[C@H]1CC/C(Cn1cc(-c3cc(C)c(C)cc3C)nn1)=C\CC[C@@]1(C)O[C@@H]21,1.68 µM,2.43 µM,10.8 µM,3.06 µM,2.19 µM,4.11 µM,3 µM,1.91 µM,2.15 µM,2.83 µM,0.436 µM,1.16 µM,3.16 µM,1.52 µM,1.03 µM,1.18 µM,1.43 µM,0.502 µM,0.643 µM,1.46 µM
Cc1c(N=Cc2ccc(N(CCC#N)CCC#N)cc2)c(=O)n(-c2ccccc2)n1C,99 µM,86.5 µM,> 100 µM,> 100 µM,> 100 µM,> 100 µM,> 100 µM,> 100 µM,> 100 µM,62.1 µM,,,,,,,,,,
N#CC1C2CCC3(CC2CCN1C(=O)c1ccccc1)OCCO3 (stereo unspecified),> 100 µM,> 100 µM,> 100 µM,> 100 µM,> 100 µM,> 100 µM,> 100 µM,> 100 µM,> 100 µM,> 100 µM,,,,,,,,,,
COc1cc(OC)c(C(=O)/C=C/c2cccc(OC(C)=O)c2)cc1CC=C(C)C,39.8 µM,16.2 µM,17.8 µM,22.7 µM,12.6 µM,33.7 µM,33.3 µM,17.3 µM,14.2 µM,> 50 µM,8.52 µM,8.62 µM,6.57 µM,7.26 µM,3.44 µM,8.94 µM,10.6 µM,5.92 µM,6.96 µM,23.6 µM
CN1CCN(c2ccc(C(=O)Nc3cc(-c4cccc(NS(=O)(=O)c5ccccc5)c4)[nH]n3)cc2)CC1,16.2 µM,9.57 µM,23.1 µM,25.7 µM,25.8 µM,14.5 µM,26.7 µM,14.6 µM,14.1 µM,26.7 µM,2.54 µM,1.79 µM,5.46 µM,5.51 µM,12.7 µM,3.33 µM,9.87 µM,3.51 µM,4.28 µM,12.4 µM
